The target in one assay is T1, IDH1 R132H (Homo sapiens, UniProt O75874, R132H).
T1 construct: 6xHis
The assay is described as follows: Biochemical assay for IDH inhibition (NADPH fluorescence), mutant IDH1 R132H. Conditions: 50 nM IDH1-R132H, 1 hour pre-incubation, in triplet. The procedure, abridged: (§1)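 The read-out was the linear-phase loss of NADPH fluorescence (340/460 nm) over 15 min, background-subtracted and normalized to DMSO wells, giving triplicate IC50 values. Beforehand, R132H (50 nM) or R132C (25 nM) was exposed to compound for 1 h at room temperature with 1.33 mM α-KG at pH 7.5, and the reaction was triggered by adding an 80 μM NADPH solution.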

A further assay addresses T2, IDH1 R132C (Homo sapiens, UniProt O75874, R132C).
T2 construct: 6xHis
Description: Biochemical assay for IDH inhibition (NADPH fluorescence), mutant IDH1 R132C. Conditions: 25 nM IDH1-R132C, 1 hour pre-incubation, in triplet. In short, it runs like this: as §1

In assay [1] the target is T3, IDH (endogenous IDH1 R132C) in HT1080 cell (Homo sapiens, UniProt O75874, R132C).
T3 construct: which harbor endogenous heterozygous IDH1 R132C and R132H mutation respectively and accumulate D-2-HG
The assay is described as follows: Cell-based assay for IDH inhibition (decrease of D-2-HG) in HT1080 cells. Conditions: human fibrosarcoma cell line HT1080, 16 hours treatment, D-2-HG by LC-MS, in triplet. In short, it runs like this: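 LC-MS/MS quantification of D-2-HG, normalized to glutamate, follows a 16 h compound exposure of IDH1 R132C HT1080 cells in DMEM with 10% FBS. Extraction uses pre-chilled 40% methanol/40% acetonitrile in water. Triplicate determinations; IC50 from D-2-HG levels relative to DMSO-treated cells.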

T3 sequence (O75874 2-414 R132C): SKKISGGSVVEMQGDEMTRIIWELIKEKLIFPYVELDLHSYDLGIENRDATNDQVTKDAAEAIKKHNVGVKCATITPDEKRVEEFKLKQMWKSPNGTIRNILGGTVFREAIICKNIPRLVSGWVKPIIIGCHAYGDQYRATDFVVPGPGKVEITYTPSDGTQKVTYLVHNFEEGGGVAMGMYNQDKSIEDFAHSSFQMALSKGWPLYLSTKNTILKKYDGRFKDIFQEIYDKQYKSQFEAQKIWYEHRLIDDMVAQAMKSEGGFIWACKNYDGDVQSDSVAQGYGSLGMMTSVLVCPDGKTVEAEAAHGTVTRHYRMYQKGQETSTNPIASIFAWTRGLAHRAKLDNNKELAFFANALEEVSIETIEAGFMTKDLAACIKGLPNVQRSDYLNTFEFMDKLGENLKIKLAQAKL
T1 sequence (O75874 whole entry R132H): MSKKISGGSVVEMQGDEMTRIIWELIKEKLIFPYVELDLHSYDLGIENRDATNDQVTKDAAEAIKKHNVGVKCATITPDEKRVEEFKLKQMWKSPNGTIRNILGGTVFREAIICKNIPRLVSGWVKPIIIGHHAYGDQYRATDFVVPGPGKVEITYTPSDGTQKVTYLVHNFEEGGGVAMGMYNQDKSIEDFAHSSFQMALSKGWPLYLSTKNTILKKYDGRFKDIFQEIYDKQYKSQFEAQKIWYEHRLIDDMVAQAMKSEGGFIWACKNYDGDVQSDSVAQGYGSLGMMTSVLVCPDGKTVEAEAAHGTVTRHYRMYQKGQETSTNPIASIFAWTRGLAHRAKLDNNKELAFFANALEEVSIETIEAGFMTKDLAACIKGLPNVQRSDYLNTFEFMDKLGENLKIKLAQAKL
T2 sequence (O75874 whole entry R132C): as the sequence (O75874 whole entry R132H) above, with H132C counted along it

The term IC50 denotes the concentration needed to halve the response being measured. With `CCN1Cc2c(ccnc2N[C@@H](C)c2cc(F)c(-c3ccnc(C4CCCC4)c3)cc2F)C1=O` [Compound 101, (S)-4-((1-(4-(2-cyclopentylpyridin-4-yl)-2,5-difluorophenyl)ethyl)amino)-2-ethyl-2,3-dihydro-1H-pyrrolo[3,4-c]pyridin-1-one], the IC50 is less than 100 nM on IDH1 R132H, 100 to 500 nM on IDH1 R132C and 100 to 500 nM in assay [1].

Turning to `CCN1Cc2c(ccnc2N[C@@H](C)c2cc(F)c(-c3ccnc(C(C)(C)F)c3)cc2F)C1=O` [Compound 102, 4-[[(1S)-1-[2,5-difluoro-4-[2-(1-fluoro-1-methyl-ethyl)-4-pyridyl]phenyl]ethyl]amino]-2-ethyl-3H-pyrrolo[3,4-c]pyridin-1-one], the results for the half-inhibitory concentration (IC50) (at IDH1 R132H; on IDH1 R132C; in assay [1]) were less than 100 nM, 100 to 500 nM and 100 to 500 nM, respectively.

Turning to `CCN1Cc2c(ccnc2N[C@@H](C)c2cc(F)c(-c3ccnc(C(C)(C)O)c3)cc2F)C1=O` [Compound 103, (S)-4-((1-(2,5-difluoro-4-(2-(2-hydroxypropan-2-yl)pyridin-4-yl)phenyl)ethyl)amino)-2-ethyl-2,3-dihydro-1H-pyrrolo[3,4-c]pyridin-1-one], the IC50 (at IDH1 R132H; on IDH1 R132C; in assay [1]) was greater than 1000 nM in each case.

As to `CCN1Cc2c(ccnc2N[C@@H](C)c2cc(F)c(-c3cc(C(C)(C)C)ncc3F)cc2F)C1=O` [Compound 104, (S)-4-((1-(4-(2-(tert-butyl)-5-fluoropyridin-4-yl)-2,5-difluorophenyl)ethyl)amino)-2-ethyl-2,3-dihydro-1H-pyrrolo[3,4-c]pyridin-1-one], the IC50 (at IDH1 R132H; at IDH1 R132C; in assay [1]) was less than 100 nM in each case.

Regarding `CCN1Cc2c(ccnc2N[C@@H](C)c2cc(F)c(-c3ccnc(C(C)(C)C(F)(F)F)c3)cc2F)C1=O` [Compound 105, (S)-4-((1-(2,5-difluoro-4-(2-(1,1,1-trifluoro-2-methylpropan-2-yl)pyridin-4-yl)phenyl)ethyl)amino)-2-ethyl-2,3-dihydro-1H-pyrrolo[3,4-c]pyridin-1-one], the half-maximal inhibitory concentration (IC50) (on IDH1 R132H; at IDH1 R132C; in assay [1]) was less than 100 nM in each case.

Take `CCN1Cc2c(ccnc2N[C@@H](C)c2cc(F)c(-c3ccnc(C(C)(F)F)c3)cc2F)C1=O` [Compound 106, (S)-4-((1-(4-(2-(1,1-difluoroethyl)pyridin-4-yl)-2,5-difluorophenyl)ethyl)amino)-2-ethyl-2,3-dihydro-1H-pyrrolo[3,4-c]pyridin-1-one]: the concentration for half-maximal inhibition (IC50) (on IDH1 R132H; on IDH1 R132C; in assay [1]) was 100 to 500 nM throughout.

In the case of `CCN1Cc2c(ccnc2N[C@@H](C)c2cc(F)c(-c3ccnc(C(F)(F)C(F)(F)F)c3)cc2F)C1=O` [Compound 107, (S)-4-((1-(2,5-difluoro-4-(2-(perfluoroethyl)pyridin-4-yl)phenyl)ethyl)amino)-2-ethyl-2,3-dihydro-1H-pyrrolo[3,4-c]pyridin-1-one], the 50% inhibitory concentration (IC50) is less than 100 nM at IDH1 R132H, less than 100 nM at IDH1 R132C and 100 to 500 nM in assay [1].

As for `CCN1Cc2c(ccnc2N[C@@H](C)c2cc(F)c(-c3cc(C(C)(C)C)ccn3)cc2F)C1=O` [Compound 108, (S)-4-((1-(4-(4-(tert-butyl)pyridin-2-yl)-2,5-difluorophenyl)ethyl)amino)-2-ethyl-2,3-dihydro-1H-pyrrolo[3,4-c]pyridin-1-one], the half-inhibitory concentration (IC50) (on IDH1 R132H; on IDH1 R132C; in assay [1]) was less than 100 nM each time.

In the case of `CCN1Cc2c(ccnc2N[C@@H](C)c2cc(F)c(-c3cncc(C(C)(C)C)c3)cc2F)C1=O` [Compound 109, (S)-4-((1-(4-(5-(tert-butyl)pyridin-3-yl)-2,5-difluorophenyl)ethyl)amino)-2-ethyl-2,3-dihydro-1H-pyrrolo[3,4-c]pyridin-1-one], the IC50 (on IDH1 R132H; on IDH1 R132C; in assay [1]) was less than 100 nM each time.

Regarding `CCN1Cc2c(ccnc2N[C@@H](C)c2cc(F)c(-c3cc(C(C)(C)C)ncn3)cc2F)C1=O` [Compound 110, (S)-4-((1-(4-(6-(tert-butyl)pyrimidin-4-yl)-2,5-difluorophenyl)ethyl)amino)-2-ethyl-2,3-dihydro-1H-pyrrolo[3,4-c]pyridin-1-one], the half-inhibitory concentration (IC50) (at IDH1 R132H; at IDH1 R132C; in assay [1]) was less than 100 nM each time.

Regarding `CCN1Cc2c(ccnc2N[C@@H](C)c2cc(F)c(-c3ccnc(C(C)(C)C)n3)cc2F)C1=O` [Compound 111, (S)-4-((1-(4-(2-(tert-butyl)pyrimidin-4-yl)-2,5-difluorophenyl)ethyl)amino)-2-ethyl-2,3-dihydro-1H-pyrrolo[3,4-c]pyridin-1-one], the IC50 on IDH1 R132H was less than 100 nM; at IDH1 R132C, 100 to 500 nM; in assay [1] it was 100 to 500 nM.

For the compound `CCN1Cc2c(ccnc2N[C@@H](C)c2cc(F)c(-c3cc(C(C)(C)F)ccn3)cc2F)C1=O` [Compound 112, (S)-4-((1-(2,5-difluoro-4-(4-(2-fluoropropan-2-yl)pyridin-2-yl)phenyl)ethyl)amino)-2-ethyl-2,3-dihydro-1H-pyrrolo[3,4-c]pyridin-1-one], the IC50 (at IDH1 R132H; on IDH1 R132C; in assay [1]) was less than 100 nM throughout.

With `CCN1Cc2c(ccnc2N[C@@H](C)c2cc(F)c(-c3cc(C(C)(C)F)cc(C)n3)cc2F)C1=O` [Compound 113, (S)-4-((1-(2,5-difluoro-4-(4-(2-fluoropropan-2-yl)-6-methylpyridin-2-yl)phenyl)ethyl)amino)-2-ethyl-2,3-dihydro-1H-pyrrolo[3,4-c]pyridin-1-one], the IC50 (on IDH1 R132H; on IDH1 R132C; in assay [1]) was less than 100 nM in each case.

In the case of `CCN1Cc2c(ccnc2N[C@@H](C)c2cc(F)c(-c3cc(C#N)ccn3)cc2F)C1=O` [Compound 114, (S)-2-(4-(1-((2-ethyl-1-oxo-2,3-dihydro-1H-pyrrolo[3,4-c]pyridin-4-yl)amino)ethyl)-2,5-difluorophenyl)isonicotinonitrile], the half-inhibitory concentration (IC50) on IDH1 R132H is greater than 1000 nM; at IDH1 R132C it was greater than 1000 nM; in assay [1], 500 to 1000 nM.

Consider `CCN1Cc2c(ccnc2N[C@@H](C)c2cc(F)c(-c3cc(C(F)(F)F)ccn3)cc2F)C1=O` [Compound 115, (S)-4-((1-(2,5-difluoro-4-(4-(trifluoromethyl)pyridin-2-yl)phenyl)ethyl)amino)-2-ethyl-2,3-dihydro-1H-pyrrolo[3,4-c]pyridin-1-one], for which the figures for the IC50 (on IDH1 R132H; on IDH1 R132C; in assay [1]) were less than 100 nM, 100 to 500 nM and 100 to 500 nM, respectively.

Take `CCN1Cc2c(ccnc2N[C@@H](C)c2cc(F)c(-c3cc(C(C)(C)C)ncc3OC)cc2F)C1=O` [Compound 116, (S)-4-((1-(4-(2-(tert-butyl)-5-methoxypyridin-4-yl)-2,5-difluorophenyl)ethyl)amino)-2-ethyl-2,3-dihydro-1H-pyrrolo[3,4-c]pyridin-1-one]: the concentration for half-maximal inhibition (IC50) (at IDH1 R132H; on IDH1 R132C; in assay [1]) was less than 100 nM each time.

For `CCN1Cc2c(ccnc2N[C@@H](C)c2cc(F)c(-c3nc(C(C)(C)C)ccc3OC)cc2F)C1=O` [Compound 117, (S)-4-((1-(4-(6-(tert-butyl)-3-methoxypyridin-2-yl)-2,5-difluorophenyl)ethyl)amino)-2-ethyl-2,3-dihydro-1H-pyrrolo[3,4-c]pyridin-1-one], the 50% inhibitory concentration (IC50) (at IDH1 R132H; on IDH1 R132C; in assay [1]) was less than 100 nM in each case.

For `CCN1Cc2c(ccnc2N[C@@H](C)c2cc(F)c(-c3cc(C(C)(C)F)cc(CF)n3)cc2F)C1=O` [Compound 118, (S)-4-((1-(2,5-difluoro-4-(6-(fluoromethyl)-4-(2-fluoropropan-2-yl)pyridin-2-yl)phenyl)ethyl)amino)-2-ethyl-2,3-dihydro-1H-pyrrolo[3,4-c]pyridin-1-one], the IC50 (on IDH1 R132H; on IDH1 R132C; in assay [1]) was less than 100 nM throughout.

`CCN1Cc2c(ccnc2N[C@@H](C)c2cc(F)c(-c3cc(C(C)(C)F)cc(F)n3)cc2F)C1=O` [Compound 119, (S)-4-((1-(2,5-difluoro-4-(6-fluoro-4-(2-fluoropropan-2-yl)pyridin-2-yl)phenyl)ethyl)amino)-2-ethyl-2,3-dihydro-1H-pyrrolo[3,4-c]pyridin-1-one]: the 50% inhibitory concentration (IC50) (at IDH1 R132H; at IDH1 R132C; in assay [1]) was less than 100 nM throughout.

Regarding `CCN1Cc2c(ccnc2N[C@@H](C)c2cc(F)c(-c3cc(C(C)(C)F)cc(OC)n3)cc2F)C1=O` [Compound 120, (S)-4-((1-(2,5-difluoro-4-(4-(2-fluoropropan-2-yl)-6-methoxypyridin-2-yl)phenyl)ethyl)amino)-2-ethyl-2,3-dihydro-1H-pyrrolo[3,4-c]pyridin-1-one], the IC50 (on IDH1 R132H; at IDH1 R132C; in assay [1]) was less than 100 nM each time.

Take `CCN1Cc2c(ccnc2N[C@@H](C)c2cc(F)c(-c3cc(C(F)(F)F)cc(Cl)n3)cc2F)C1=O` [Compound 121, (S)-4-((1-(4-(6-chloro-4-(trifluoromethyl)pyridin-2-yl)-2,5-difluorophenyl)ethyl)amino)-2-ethyl-2,3-dihydro-1H-pyrrolo[3,4-c]pyridin-1-one]: the IC50 was less than 100 nM at IDH1 R132H, 100 to 500 nM on IDH1 R132C and 500 to 1000 nM in assay [1].

(Values after patent publication US12441725B2, “ISO-citrate dehydrogenase (IDH) inhibitor” (ZHEJIANG METON PHARMACEUTICAL CO., LTD, priority 2019, dated 2025).)
